Measured values published in patent US20090203738A1, “Pharmaceutical Composition for Treating Bulimia and Depression Arising from Bulimia” (priority 2005, published 2009).
Counter-ions that a name gives are not always drawn. Like-named read-outs stand apart in the source and are kept apart here.

Assays:
[1] = system: patient with excessive eating and vomiting (bulimia) and depressive state; conditions: patient history: drug therapy and spiritual therapy at three neurological hospitals before the first examination; cited from earlier work
[2] = system: patients suffering from light to medium Alzheimer's disease; conditions: 24-week, double-blind, placebo-controlled trial; cited from earlier work
[3] = system: patient with excessive eating and vomiting (bulimia), insensitive to 60 mg of fluoxetine
Description: An excessive eating started when they were the third year class ([…]) of high school and it is still continuing. At the first medical examination, they were unable to go to university.

bulimia = conditions: cited from earlier work

Structure (SMILES): Fc1ccc([C@@H]2CCNC[C@H]2COc2ccc3c(c2)OCO3)cc1 [Paxil]
- improvement under earlier drug therapy [1]: no improvement was noted

Structure (SMILES): Cc1nc2n(c(=O)c1CCN1CCC(c3noc4cc(F)ccc34)CC1)CCCC2 [Risperdal]
- improvement under earlier drug therapy [1]: no improvement was noted

Structure (SMILES): O=C1CN=C(c2ccccc2Cl)c2cc([N+](=O)[O-])ccc2N1 [Rivotril]
- improvement under earlier drug therapy [1]: no improvement was noted

Structure (SMILES): CN1C(=O)CN=C(c2ccccc2)c2cc(Cl)ccc21 [diazepam]
- improvement under earlier drug therapy [1]: no improvement was noted

Structure (SMILES): COc1cc2c(cc1OC)C(=O)C(CC1CCN(Cc3ccccc3)CC1)C2 (stereo not shown) [donepezil hydrochloride, 1-benzyl-4-[(5,6-dimethoxy-1-indanon)-2-yl]methylpiperidine]
- cognitive ability and general function [2]: improves the cognitive ability and general function

Structure (SMILES): CNCCC(Oc1ccc(C(F)(F)F)cc1)c1ccccc1 (stereo not shown) [fluoxetine]
- improvement in excessive eating ([3]; 20 mg of fluoxetine for two weeks): no improvement in excessive eating was noted
- improvement in excessive eating ([3]; fluoxetine increased to 40 mg): no improvement was noted yet
- amount and frequency of excessive eating ([3]; fluoxetine increased up to 60 mg, for two weeks): no decrease in amount and frequency of excessive eating were noted
- depression ([3]; fluoxetine up to 60 mg, six weeks from the initiation of the therapy): No change in depression was noted
- rate of improvement (bulimia; bulimia, 60 mg per day): about 60%

Structure (SMILES): COCCCC/C(=N\OCCN)c1ccc(C(F)(F)F)cc1 [fluvoxamine]
- improvement under earlier drug therapy [1]: no improvement was noted

Structure (SMILES): OC1(c2ccc(Cl)cc2)c2ccccc2C2=NCCN21 (stereo not shown) [mazindol]
- side effects (bulimia; applied for bulimia): excitation, frustration, load on cardiovascular system, dysuria and others

Structure (SMILES): CCCC(CCC)C(=O)[O-].[Na+] [sodium valproate]
- improvement under earlier drug therapy [1]: no improvement was noted
